Data as given in US20120202690A1, “HERBICIDAL COMPOUNDS” (SYNGENTA LIMITED, priority 2009, published 2012).

Tests used:
Assay type in all cases: in vivo
[1] = test system: Amaranthus retroflexus (AMARE); assay: Post-emergence biological efficacy, glasshouse, 500 or 1000 g/ha, evaluated after 13 days (100=total damage to plant; 0=no damage to plant); conditions: Amaranthus retroflexus, 312 h, rate 1,000 g/ha, read-out: Percentage damage caused to weed species, post-emergence, AMARE
How it was run: (§1)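 Damage is scored on pot-grown plants, sown in standard soil and sprayed after emergence, that were held post-treatment in a glasshouse (24/16° C. day/night, 14 hours light, 65% humidity).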

Setaria faberi (SETFA) [2] = assay: as above; conditions: Setaria faberi, 312 h, rate 1,000 g/ha, read-out: Percentage damage caused to weed species, post-emergence, SETFA
How it was run: as §1

[3] = test system: Alopecurus myosuroides (ALOMY); assay: as above; conditions: Alopecurus myosuroides, 312 h, rate 1,000 g/ha, read-out: Percentage damage caused to weed species, post-emergence, ALOMY
How it was run: as §1

[4] = test system: Ipomoea hederaceae (IPOHE); assay: as above; conditions: Ipomoea, 312 h, rate 1,000 g/ha, read-out: Percentage damage caused to weed species, post-emergence, IPOHE
How it was run: as §1

Solanum nigrum (SOLNI) [5] = assay: as above; conditions: Solanum nigrum, 312 h, rate 1,000 g/ha, read-out: Percentage damage caused to weed species, post-emergence, SOLNI
How it was run: as §1

[6] = test system: Echinochloa crusgaffi (ECHCG); assay: as above; conditions: Echinochloa, 312 h, rate 1,000 g/ha, read-out: Percentage damage caused to weed species, post-emergence, ECHCG
How it was run: as §1

[7] = test system: Amaranthus retroflexus (AMARE); assay: Pre-emergence biological efficacy, glasshouse, 1000 g/ha, evaluated after 13 days (100=total damage to plant; 0=no damage to plant); conditions: Amaranthus retroflexus, 312 h, rate 1,000 g/ha, read-out: Percentage damage caused to weed species, pre-emergence, AMARE
How it was run: (§2)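 Test species are sown into pots of standard soil. Plants then grow in the glasshouse under controlled conditions (24/16° C. day/night, 14 hours light, 65% humidity) and receive water twice a day.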

Setaria faberi (SETFA) [8] = assay: as above; conditions: Setaria faberi, 312 h, rate 1,000 g/ha, read-out: Percentage damage caused to weed species, pre-emergence, SETFA
How it was run: as §2

[9] = test system: Alopecurus myosuroides (ALOMY); assay: as above; conditions: Alopecurus myosuroides, 312 h, rate 1,000 g/ha, read-out: Percentage damage caused to weed species, pre-emergence, ALOMY
How it was run: as §2

[10] = test system: Ipomoea hederaceae (IPOHE); assay: as above; conditions: Ipomoea, 312 h, rate 1,000 g/ha, read-out: Percentage damage caused to weed species, pre-emergence, IPOHE
How it was run: as §2

Solanum nigrum (SOLNI) [11] = assay: as above; conditions: Solanum nigrum, 312 h, rate 1,000 g/ha, read-out: Percentage damage caused to weed species, pre-emergence, SOLNI
How it was run: as §2

[12] = test system: Echinochloa crus-galli (ECHCG); assay: as above; conditions: Echinochloa crus-galli, 312 h, rate 1,000 g/ha, read-out: Percentage damage caused to weed species, pre-emergence, ECHCG
How it was run: as §2

| Structure (SMILES) | pest or weed control at 1000 g/ha [1] | pest or weed control at 1000 g/ha (Setaria faberi (SETFA) [2]) | pest or weed control at 1000 g/ha [3] | pest or weed control at 1000 g/ha [4] | pest or weed control at 1000 g/ha (Solanum nigrum (SOLNI) [5]) | pest or weed control at 1000 g/ha [6] | pest or weed control at 1000 g/ha [7] | pest or weed control at 1000 g/ha (Setaria faberi (SETFA) [8]) | pest or weed control at 1000 g/ha [9] | pest or weed control at 1000 g/ha [10] | pest or weed control at 1000 g/ha (Solanum nigrum (SOLNI) [11]) | pest or weed control at 1000 g/ha [12] |
| --- | --- | --- | --- | --- | --- | --- | --- | --- | --- | --- | --- | --- |
| COC(=O)c1nc(-c2ccc(Cl)c(OC)c2F)nc2c1N(Cc1ccccc1)C(C)N2Cc1ccccc1 (stereo not drawn) [Compound 81-46, 2-(4-chloro-2-fluoro-3-methoxyphenyl)-7,9-dibenzyl-6-methoxycarbonyl-8-methyl-8,9-dihydro-7H-purine] | 0% | 10% | 0% | 0% | 10% | 0% | 0% | 0% | 0% | 0% | 0% | 0% |
| O=C(O)c1nc(-c2ccc(Cl)c(F)c2)nc2c1ccn2Cc1ncccc1Cl [Compound 14-17, 4-Carboxy-2-(4-chloro-3-fluorophenyl)-7-(3-chloropyrid-2-yl-methyl)-7H-pyrrolo[2,3-d]pyrimidine] | 0% | 0% | 0% | 10% | 40% | 0% | 0% | 0% | 0% | 0% | 0% | 0% |
| COC(=O)c1nc(-c2ccc(Cl)c(OC)c2F)nc2c1OCCN2C [Compound 106-74, 2-(4-Chloro-2-fluoro-3-methoxyphenyl)-4-methoxycarbonyl-8-methyl-7,8-dihydro-6H-pyrimido[5,4-b][1,4]oxazine] | 0% | 0% | 0% | 0% | 0% | 0% | 0% | 0% | 0% | 0% | 0% | 0% |
| O=C(O)c1nc(-c2ccc(Cl)c(F)c2)nc2c1ccn2Cc1ccccc1 [Compound 6-17, 4-Carboxy-2-(4-chloro-3-fluorophenyl)-7-phenylmethyl-7H-pyrrolo[2,3-d]pyrimidine] | 20% | 0% | 0% | 0% | 40% | 0% | 0% | 0% | 0% | 0% | 0% | 0% |
| COC(=O)c1nc(-c2ccc(Cl)c(OC)c2F)nc2c1cc(C)n2CC1CC1 [Compound 5-66, 2-(4-Chloro-2-fluoro-3-methoxyphenyl)-7-cyclopropylmethyl-4-methoxycarbonyl-6-methyl-7H-pyrrolo[2,3-d]pyrimidine] | 0% | 20% | 10% | 0% | 20% | 10% | 0% | 0% | 0% | 0% | 0% | 0% |
| COC(=O)c1nc(-c2ccc(Cl)c(OC)c2F)cc2c1c(C)cn2C(=O)C(C)(C)C [Compound 37-64, 1-t-Butylcarbonyl-6-(4-chloro-2-fluoro-3-methoxyphenyl)-4-methoxycarbonyl-3-methyl-1H-pyrrolo[3,2-c]pyridine] | 0% | 0% | 0% | 40% | 50% | 0% | 0% | 0% | 0% | 0% | 0% | 0% |
| COC(=O)c1nc(-c2ccc(Cl)c(OC)c2F)nc2nc3ccccc3nc12 [Compound 125-76, 2-(4-chloro-2-fluoro-3-methoxyphenyl)-4-methoxycarbonyl-benzo[g]pteridine] | 100% | 80% | 10% | 80% | 90% | 70% | 80% | 20% | 10% | 60% | 70% | 20% |
| COC(=O)c1nc(-c2ccc(Cl)c(OC)c2F)nc2c1c(C)cn2C(=O)C(C)(C)C [Compound 16-64, 7-t-Butylcarbonyl-2-(4-chloro-2-fluoro-3-methoxyphenyl)-4-methoxycarbonyl-5-methyl-7H-pyrrolo[2,3-d]pyrimidine] | 10% | 0% | 0% | 70% | 60% | 0% | 0% | 0% | 0% | 0% | 0% | 0% |
| COC(=O)c1nc(Cl)cc2[nH]ccc12 [Compound 22-122, 6-chloro-4-methoxycarbonyl-1H-pyrrolo[3,2-c]pyridine] | 60% | 0% | 0% | 10% | 20% | 0% | 0% | 0% | 0% | 0% | 0% | 0% |
| COC(=O)c1nc(-c2ccc(Cl)c(OC)c2F)cc2[nH]cc(C)c12 [Compound 22-64, 6-(4-chloro-2-fluoro-3-methoxyphenyl)-4-methoxycarbonyl-3-methyl-1H-pyrrolo[3,2-c]pyridine] | 100% | 70% | 50% | 70% | 90% | 80% | 90% | 20% | 10% | 60% | 80% | 70% |
| C=CCOC(=O)c1nc(-c2ccc(Cl)c(OC)c2F)cc2[nH]cc(C)c12 [Compound 22-80, 6-(4-Chloro-2-fluoro-3-methoxyphenyl)-3-methyl-4-(prop-2-enyloxycarbonyl)-1H-pyrrolo[3,2-c]pyridine] | 70% | 20% | 10% | 50% | 90% | 10% | 40% | 20% | 20% | 50% | 60% | 20% |
